Source: patent US10723711B2, “1,1,1-trifluoro-3-hydroxypropan-2-yl carbamate derivatives and 1,1,1-trifluoro-4-hydroxybutan-2-yl carbamate derivatives as MAGL inhibitors” (PFIZER INC., priority 2015, dated 2020)
Where two headings read alike, the source gives them in different places.

How the values were obtained:
[1] = target: T1, human recombinant Monoacylglycerol Lipase (Homo sapiens, UniProt Q99685); experiment: MAGL inhibition enzymatic assay, fluorogenic substrate 7-HCA, IC50 at T=0 min or after 30 minute incubation (T=30 min); format: biochemical; conditions: geometric mean of 2-4 determinations unless otherwise indicated
T1 sequence (Q99685 1-303): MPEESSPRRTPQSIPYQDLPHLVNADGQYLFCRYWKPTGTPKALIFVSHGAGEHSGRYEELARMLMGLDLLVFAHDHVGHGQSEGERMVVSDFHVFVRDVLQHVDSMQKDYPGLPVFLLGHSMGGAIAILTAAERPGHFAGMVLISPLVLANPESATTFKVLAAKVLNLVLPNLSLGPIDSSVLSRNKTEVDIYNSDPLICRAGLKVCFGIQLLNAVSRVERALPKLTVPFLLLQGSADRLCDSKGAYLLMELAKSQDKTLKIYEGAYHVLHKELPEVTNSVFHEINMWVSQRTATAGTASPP
Protocol: An equal volume of 7-HCA in assay buffer with 10% DMSO was added either immediately (T=0 min) or after a 30 minute incubation (T=30 min) to initiate the reaction. […] After these dilutions, the final concentration of the test compound ranged from 3 μM to 0.03 nM. […] IC50 values were generated based on a four parameter fit model using ABASE software from IDBS.

[2] = target: T1, human recombinant Monoacylglycerol Lipase; experiment: MAGL inactivation, enzyme progress curves, kinact/KI; format: biochemical; conditions: from enzyme progress curves, T = 0 min protocol; geometric mean of 2-4 determinations unless otherwise indicated
How it was run: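 Human recombinant MAGL ([…]) with compound, 7-HCA substrate (final 5 μM) added immediately (T=0 min), in pH 7.4 HEPES buffer with 0.1% Triton X-100 and 25% glycerin. Fluorescence (Ex/Em 340/465) was read every minute over 60 min, giving progress curves at decreasing compound concentrations (final 3 μM to 0.03 nM).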

[3] = target: T2, human recombinant FAAH (Homo sapiens, UniProt O00519); experiment: FAAH inhibition enzymatic assay, fluorescent substrate Arachidonoyl-AMC, 30 minute incubation; format: biochemical; conditions: T = 30 min (30 minute incubation); geometric mean of 2-4 determinations unless otherwise indicated
T2 construct: purchased Cayman 10010183
T2 sequence (O00519 1-579): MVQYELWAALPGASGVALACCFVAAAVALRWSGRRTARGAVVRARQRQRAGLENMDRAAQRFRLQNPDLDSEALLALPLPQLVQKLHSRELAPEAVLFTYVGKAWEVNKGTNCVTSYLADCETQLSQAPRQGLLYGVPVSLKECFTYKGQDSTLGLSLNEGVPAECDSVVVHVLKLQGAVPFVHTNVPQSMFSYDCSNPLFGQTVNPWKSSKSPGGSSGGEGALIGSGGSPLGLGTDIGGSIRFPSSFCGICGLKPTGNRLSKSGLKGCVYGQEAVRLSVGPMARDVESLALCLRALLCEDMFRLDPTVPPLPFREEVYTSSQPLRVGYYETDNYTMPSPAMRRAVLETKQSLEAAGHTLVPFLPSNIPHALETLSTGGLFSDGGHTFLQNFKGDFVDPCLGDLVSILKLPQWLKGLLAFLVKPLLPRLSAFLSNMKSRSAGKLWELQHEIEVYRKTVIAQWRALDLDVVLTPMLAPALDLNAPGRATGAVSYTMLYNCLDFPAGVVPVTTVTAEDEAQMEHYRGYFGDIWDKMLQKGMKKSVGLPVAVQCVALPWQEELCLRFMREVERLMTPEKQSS

[4] = Prodrug in vivo pharmacokinetics in rats after intravenous administration (LC-MS-MS of prodrug and parent); conditions: Wistar Hann rats; for Cmax: Wistar Hann, rat, iv
Protocol: (§1) Pharmacokinetic parameters derived from the plasma analytical data were determined using Watson LIMS 7.2.003 (Thermo Fisher Scientific, Waltham, Mass.).

[5] = Prodrug in vivo pharmacokinetics in dogs after intravenous administration (LC-MS-MS of prodrug and parent); conditions: Beagle dogs
Protocol: as §1

[6] = T = 0 min (substrate added immediately), read-out: MAGL (T = 0 min) IC50
[7] = T = 30 min (30 minute incubation), read-out: MAGL (T = 30 min) IC50
[8] = Example 6 (parent) in plasma, IV Example 32 at 2 mg/kg, Mean
[9] = Example 6 (parent) in plasma, IV Example 32 at 2 mg/kg, Rat 03
[10] = Example 6 (parent) in plasma, IV Example 32 at 2 mg/kg, Rat 04
[11] = Example 6 (parent) in plasma, IV Example 32 at 1 mg/kg, Dog 03
[12] = Example 6 (parent) in plasma, IV Example 32 at 1 mg/kg, Dog 04
[13] = Example 6 (parent) in plasma, IV Example 32 at 1 mg/kg, Mean
[14] = Example 9 (parent) in plasma, IV Example 31 at 1.48 mg/kg, Mean
[15] = Example 9 (parent) in plasma, IV Example 31 at 1.48 mg/kg, Rat 01
[16] = Example 9 (parent) in plasma, IV Example 31 at 1.48 mg/kg, Rat 02
[17] = Example 9 (parent) in plasma, IV Example 31 at 0.7 mg/kg, Dog 01
[18] = Example 9 (parent) in plasma, IV Example 31 at 0.7 mg/kg, Dog 02
[19] = Example 9 (parent) in plasma, IV Example 31 at 0.7 mg/kg, Mean

O=C(O[C@H](CO)C(F)(F)F)N1CCC2(CC1)CN(S(=O)(=O)c1ccc(F)cc1)CCO2 [Example 6, (2R)-1,1,1-Trifluoro-3-hydroxypropan-2-yl 4-[(4-fluorophenyl)sulfonyl]-1-oxa-4,9-diazaspiro[5.5]undecane-9-carboxylate]
IC50 [1, 6]: 0.083 µM | IC50 [1, 7]: 0.007 µM | MAGL kinact/KI [2]: 13406 1/s per M | IC50 [3]: > 30 µM | melting point: 132 °C | % AUC Extrap [4, 8]: 3.46% | AUC [4, 8]: 0.158 µg·h/mL | AUC Extrap [4, 8]: 0.162 µg·h/mL | Rate Constant [4, 8]: 2.22 h⁻¹ | Tmax [4, 8]: 3.48 min | T½ [4, 8]: 20.5 min | % AUC Extrap [4, 9]: 6.04% | AUC [4, 9]: 0.102 µg·h/mL | AUC Extrap [4, 9]: 0.109 µg·h/mL | Rate Constant [4, 9]: 2.86 h⁻¹ | Tmax [4, 9]: 4.98 min | T½ [4, 9]: 14.5 min | % AUC Extrap [4, 10]: 0.880% | AUC [4, 10]: 0.213 µg·h/mL | AUC Extrap [4, 10]: 0.215 µg·h/mL | Rate Constant [4, 10]: 1.57 h⁻¹ | Tmax [4, 10]: 1.98 min | T½ [4, 10]: 26.5 min | Cmax ([4]; plasma, 2 mg/kg, Example 6 (parent) in plasma, IV Example 32 at 2 mg/kg, Mean): 0.309 µg/mL | Cmax ([4]; plasma, 2 mg/kg, Example 6 (parent) in plasma, IV Example 32 at 2 mg/kg, Rat 03): 0.234 µg/mL | Cmax ([4]; plasma, 2 mg/kg, Example 6 (parent) in plasma, IV Example 32 at 2 mg/kg, Rat 04): 0.384 µg/mL | AUC [5, 11]: 0.591 µg·h/mL | AUC Extrap [5, 11]: 0.595 µg·h/mL | Tmax [5, 11]: 4.98 min | T½ [5, 11]: 246 min | AUC [5, 12]: 0.705 µg·h/mL | AUC Extrap [5, 12]: 0.71 µg·h/mL | Tmax [5, 12]: 4.98 min | T½ [5, 12]: 322 min | AUC [5, 13]: 0.648 µg·h/mL | AUC Extrap [5, 13]: 0.653 µg·h/mL | Tmax [5, 13]: 4.98 min | T½ [5, 13]: 284 min

O=C(O[C@H](CO)C(F)(F)F)N1CCC2(CC1)C[C@@H](NS(=O)(=O)c1ccccc1)CO2 [Example 9, (2R)-1,1,1-Trifluoro-3-hydroxypropan-2-yl (3R)-3-[(phenylsulfonyl)amino]-1-oxa-8-azaspiro[4.5]decane-8-carboxylate]
IC50 [1, 6]: 0.04 µM | IC50 [1, 7]: 0.004 µM | MAGL kinact/KI [2]: 8588 1/s per M | IC50 [3]: > 30 µM | % AUC Extrap [4, 14]: 2.46% | AUC [4, 14]: 0.146 µg·h/mL | AUC Extrap [4, 14]: 0.15 µg·h/mL | Rate Constant [4, 14]: 0.500 h⁻¹ | Tmax [4, 14]: 4.98 min | T½ [4, 14]: 84.6 min | % AUC Extrap [4, 15]: 2.08% | AUC [4, 15]: 0.118 µg·h/mL | AUC Extrap [4, 15]: 0.121 µg·h/mL | Rate Constant [4, 15]: 0.560 h⁻¹ | Tmax [4, 15]: 4.98 min | T½ [4, 15]: 74.4 min | % AUC Extrap [4, 16]: 2.83% | AUC [4, 16]: 0.173 µg·h/mL | AUC Extrap [4, 16]: 0.178 µg·h/mL | Rate Constant [4, 16]: 0.440 h⁻¹ | Tmax [4, 16]: 4.98 min | T½ [4, 16]: 94.2 min | Cmax ([4]; in vivo, 1.48 mg/kg, Example 9 (parent) in plasma, IV Example 31 at 1.48 mg/kg, Mean): 0.316 µg/mL | Cmax ([4]; in vivo, 1.48 mg/kg, Example 9 (parent) in plasma, IV Example 31 at 1.48 mg/kg, Rat 01): 0.253 µg/mL | Cmax ([4]; in vivo, 1.48 mg/kg, Example 9 (parent) in plasma, IV Example 31 at 1.48 mg/kg, Rat 02): 0.378 µg/mL | AUC [5, 17]: 1.35 µg·h/mL | AUC Extrap [5, 17]: 1.55 µg·h/mL | Tmax [5, 17]: 15 min | T½ [5, 17]: 642 min | AUC [5, 18]: 1.46 µg·h/mL | AUC Extrap [5, 18]: 1.56 µg·h/mL | Tmax [5, 18]: 4.98 min | T½ [5, 18]: 482 min | AUC [5, 19]: 1.41 µg·h/mL | AUC Extrap [5, 19]: 1.56 µg·h/mL | Tmax [5, 19]: 10.2 min | T½ [5, 19]: 562 min
